# Experimental data from the kinase profiling compilation of Christmann-Franck et al. (2016).
# Columns and labels:
# Assay in all cases: KINOMEscan competition binding
# Settings in all cases: compound 10.0 µM
# MAPK3 (human) = MAPK3 (human) (UniProt P27361)
# CSNK1E (human) = CSNK1E (human) (UniProt P49674)
# RIOK1 (human) = RIOK1 (human) (UniProt Q9BRS2)
# PRKACB (human) = PRKACB (human) (UniProt P22694)
# CDC42BPA (human) = CDC42BPA (human) (UniProt Q5VT25)
# CDK3 (human) = CDK3 (human) (UniProt Q00526)
# DAPK3 (human) = DAPK3 (human) (UniProt O43293)
# TAOK3 (human) = TAOK3 (human) (UniProt Q9H2K8)
# MELK (human) = MELK (human) (UniProt Q14680)
# MAP3K10 (human) = MAP3K10 (human) (UniProt Q02779)
# DYRK1B (human) = DYRK1B (human) (UniProt Q9Y463)
# MYLK (human) = MYLK (human) (UniProt Q15746)
# STK24 (human) = STK24 (human) (UniProt Q9Y6E0)
# PRKCE (human) = PRKCE (human) (UniProt Q02156)
# AKT3 (human) = AKT3 (human) (UniProt Q9Y243)
# SRC (human) = SRC (human) (UniProt P12931)
# MARK1 (human) = MARK1 (human) (UniProt Q9P0L2)
# NUAK1 (human) = NUAK1 (human) (UniProt O60285)
# FYN (human) = FYN (human) (UniProt P06241)
# CHEK2 (human) = CHEK2 (human) (UniProt O96017)
# STK25 (human) = STK25 (human) (UniProt O00506)
# PRKX (human) = PRKX (human) (UniProt P51817)
# LATS2 (human) = LATS2 (human) (UniProt Q9NRM7)
# PHKG1 (human) = PHKG1 (human) (UniProt Q16816)
# DAPK2 (human) = DAPK2 (human) (UniProt Q9UIK4)
# TNNI3K (human) = TNNI3K (human) (UniProt Q59H18)
# EPHA7 (human) = EPHA7 (human) (UniProt Q15375)
# MKNK1 (human) = MKNK1 (human) (UniProt Q9BUB5)
# [1] = target: TYK2 JH1 catalytic (human) (UniProt P29597)
# PIM1 (human) = PIM1 (human) (UniProt P11309)
# PAK6 (human) = PAK6 (human) (UniProt Q9NQU5)
# ULK1 (human) = ULK1 (human) (UniProt O75385)
# TNK1 (human) = TNK1 (human) (UniProt Q13470)
# ACVRL1 (human) = ACVRL1 (human) (UniProt P37023)
# GAK (human) = GAK (human) (UniProt O14976)
# MYO3B (human) = MYO3B (human) (UniProt Q8WXR4)
# SRPK3 (human) = SRPK3 (human) (UniProt Q9UPE1)
# [2] = target: JAK2 JH1 catalytic (human) (UniProt O60674)
# MAPKAPK5 (human) = MAPKAPK5 (human) (UniProt Q8IW41)
# CaMK1 (human) = CaMK1 (human) (UniProt Q14012)
# CaMK1 (human), sequence (Q14012 whole entry, looked up): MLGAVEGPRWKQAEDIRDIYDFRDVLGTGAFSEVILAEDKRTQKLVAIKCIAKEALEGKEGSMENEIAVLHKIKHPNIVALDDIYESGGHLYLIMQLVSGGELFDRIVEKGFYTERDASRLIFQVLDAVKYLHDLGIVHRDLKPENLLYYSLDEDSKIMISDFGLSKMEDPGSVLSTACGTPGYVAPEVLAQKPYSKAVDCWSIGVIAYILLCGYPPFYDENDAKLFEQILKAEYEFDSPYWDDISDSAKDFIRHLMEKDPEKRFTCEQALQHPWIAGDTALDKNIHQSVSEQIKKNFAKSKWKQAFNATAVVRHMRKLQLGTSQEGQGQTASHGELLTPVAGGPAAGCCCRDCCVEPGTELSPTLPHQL
# PRKCE (human), sequence (Q02156 whole entry, looked up): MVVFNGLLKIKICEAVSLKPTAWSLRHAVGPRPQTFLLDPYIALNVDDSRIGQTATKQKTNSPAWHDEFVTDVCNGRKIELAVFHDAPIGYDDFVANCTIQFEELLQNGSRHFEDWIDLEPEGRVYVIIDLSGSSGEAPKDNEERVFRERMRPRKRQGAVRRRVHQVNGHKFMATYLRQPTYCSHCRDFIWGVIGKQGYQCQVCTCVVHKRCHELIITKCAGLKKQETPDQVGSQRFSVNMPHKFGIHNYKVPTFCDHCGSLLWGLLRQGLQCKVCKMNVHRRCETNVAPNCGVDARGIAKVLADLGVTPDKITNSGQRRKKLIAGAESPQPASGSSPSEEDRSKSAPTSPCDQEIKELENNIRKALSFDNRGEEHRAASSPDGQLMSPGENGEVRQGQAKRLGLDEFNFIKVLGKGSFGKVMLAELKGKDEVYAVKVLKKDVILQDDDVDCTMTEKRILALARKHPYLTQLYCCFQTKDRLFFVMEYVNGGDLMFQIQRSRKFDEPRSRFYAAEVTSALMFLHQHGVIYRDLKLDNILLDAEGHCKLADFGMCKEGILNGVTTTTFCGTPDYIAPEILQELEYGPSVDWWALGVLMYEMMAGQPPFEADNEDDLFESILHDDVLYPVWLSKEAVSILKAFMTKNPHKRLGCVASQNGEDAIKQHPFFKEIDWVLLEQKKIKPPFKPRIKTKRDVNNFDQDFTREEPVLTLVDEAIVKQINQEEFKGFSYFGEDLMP
# MYLK (human), sequence (Q15746 whole entry, looked up): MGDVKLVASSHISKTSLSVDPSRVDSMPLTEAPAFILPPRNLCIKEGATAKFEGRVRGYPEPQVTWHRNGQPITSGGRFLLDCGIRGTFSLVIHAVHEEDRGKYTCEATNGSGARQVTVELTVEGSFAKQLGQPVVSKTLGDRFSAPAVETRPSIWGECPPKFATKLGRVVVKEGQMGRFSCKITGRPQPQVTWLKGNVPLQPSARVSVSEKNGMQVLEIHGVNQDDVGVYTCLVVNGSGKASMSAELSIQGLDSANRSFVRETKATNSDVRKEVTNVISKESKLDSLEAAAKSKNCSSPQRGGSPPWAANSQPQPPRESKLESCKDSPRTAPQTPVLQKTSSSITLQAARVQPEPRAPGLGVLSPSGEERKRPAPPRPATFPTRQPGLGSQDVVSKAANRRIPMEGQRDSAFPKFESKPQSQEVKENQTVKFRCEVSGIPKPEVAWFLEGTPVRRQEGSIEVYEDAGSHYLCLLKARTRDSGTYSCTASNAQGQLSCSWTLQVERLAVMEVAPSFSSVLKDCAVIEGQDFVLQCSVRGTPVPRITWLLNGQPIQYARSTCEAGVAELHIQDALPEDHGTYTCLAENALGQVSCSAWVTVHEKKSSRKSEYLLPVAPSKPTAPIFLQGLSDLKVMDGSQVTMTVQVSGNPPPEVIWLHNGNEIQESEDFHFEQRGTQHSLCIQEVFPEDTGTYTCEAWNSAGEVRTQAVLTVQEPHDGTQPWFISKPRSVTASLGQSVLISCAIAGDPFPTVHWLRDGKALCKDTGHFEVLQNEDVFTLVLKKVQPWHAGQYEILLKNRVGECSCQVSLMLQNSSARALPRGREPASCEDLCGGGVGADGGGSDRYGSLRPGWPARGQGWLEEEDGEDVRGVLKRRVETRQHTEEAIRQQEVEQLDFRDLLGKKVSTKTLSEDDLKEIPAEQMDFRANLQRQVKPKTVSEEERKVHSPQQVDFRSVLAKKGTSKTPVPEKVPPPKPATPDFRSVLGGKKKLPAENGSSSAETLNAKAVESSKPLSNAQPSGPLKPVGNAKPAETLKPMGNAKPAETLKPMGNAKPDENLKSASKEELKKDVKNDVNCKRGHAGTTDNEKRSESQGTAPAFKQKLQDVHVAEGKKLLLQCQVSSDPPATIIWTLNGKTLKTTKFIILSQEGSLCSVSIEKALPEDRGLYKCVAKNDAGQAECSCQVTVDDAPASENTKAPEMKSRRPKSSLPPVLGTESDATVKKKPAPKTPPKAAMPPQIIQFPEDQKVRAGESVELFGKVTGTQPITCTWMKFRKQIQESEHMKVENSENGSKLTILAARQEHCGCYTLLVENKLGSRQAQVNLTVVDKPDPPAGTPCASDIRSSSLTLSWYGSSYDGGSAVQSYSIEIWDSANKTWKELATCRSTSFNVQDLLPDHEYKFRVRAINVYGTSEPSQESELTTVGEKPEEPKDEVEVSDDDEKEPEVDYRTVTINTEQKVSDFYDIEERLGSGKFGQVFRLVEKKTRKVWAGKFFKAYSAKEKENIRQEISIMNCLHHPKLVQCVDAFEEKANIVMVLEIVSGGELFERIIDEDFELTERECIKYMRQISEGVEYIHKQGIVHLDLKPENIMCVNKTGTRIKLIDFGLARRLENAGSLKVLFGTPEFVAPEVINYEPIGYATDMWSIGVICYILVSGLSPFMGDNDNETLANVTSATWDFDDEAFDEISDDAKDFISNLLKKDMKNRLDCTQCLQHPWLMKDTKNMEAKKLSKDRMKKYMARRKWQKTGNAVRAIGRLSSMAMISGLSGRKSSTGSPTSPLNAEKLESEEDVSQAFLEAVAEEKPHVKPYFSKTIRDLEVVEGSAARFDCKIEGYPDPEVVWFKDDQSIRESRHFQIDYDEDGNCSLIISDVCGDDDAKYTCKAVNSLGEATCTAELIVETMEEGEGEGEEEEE
# MARK1 (human), sequence (Q9P0L2 whole entry, looked up): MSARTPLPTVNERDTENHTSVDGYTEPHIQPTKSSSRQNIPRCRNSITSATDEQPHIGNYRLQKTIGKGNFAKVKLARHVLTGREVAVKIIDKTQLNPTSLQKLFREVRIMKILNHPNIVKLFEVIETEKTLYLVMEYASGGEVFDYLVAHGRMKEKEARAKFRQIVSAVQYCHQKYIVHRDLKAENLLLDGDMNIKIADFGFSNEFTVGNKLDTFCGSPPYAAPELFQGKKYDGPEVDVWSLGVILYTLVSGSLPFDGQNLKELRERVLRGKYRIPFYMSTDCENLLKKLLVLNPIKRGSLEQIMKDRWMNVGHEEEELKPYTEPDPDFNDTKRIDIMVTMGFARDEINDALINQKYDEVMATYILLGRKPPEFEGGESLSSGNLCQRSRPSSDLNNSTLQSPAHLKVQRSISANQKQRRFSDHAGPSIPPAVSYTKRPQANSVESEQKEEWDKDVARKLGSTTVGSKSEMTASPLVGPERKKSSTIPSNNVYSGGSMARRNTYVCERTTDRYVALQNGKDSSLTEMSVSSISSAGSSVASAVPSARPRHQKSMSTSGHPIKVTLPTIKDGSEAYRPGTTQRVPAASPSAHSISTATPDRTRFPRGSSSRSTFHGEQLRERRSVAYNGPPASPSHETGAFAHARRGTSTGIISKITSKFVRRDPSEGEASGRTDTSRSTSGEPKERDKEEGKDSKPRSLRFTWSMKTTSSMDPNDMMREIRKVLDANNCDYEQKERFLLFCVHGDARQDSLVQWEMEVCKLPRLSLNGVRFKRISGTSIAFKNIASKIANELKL
# PAK6 (human), sequence (Q9NQU5 whole entry, looked up): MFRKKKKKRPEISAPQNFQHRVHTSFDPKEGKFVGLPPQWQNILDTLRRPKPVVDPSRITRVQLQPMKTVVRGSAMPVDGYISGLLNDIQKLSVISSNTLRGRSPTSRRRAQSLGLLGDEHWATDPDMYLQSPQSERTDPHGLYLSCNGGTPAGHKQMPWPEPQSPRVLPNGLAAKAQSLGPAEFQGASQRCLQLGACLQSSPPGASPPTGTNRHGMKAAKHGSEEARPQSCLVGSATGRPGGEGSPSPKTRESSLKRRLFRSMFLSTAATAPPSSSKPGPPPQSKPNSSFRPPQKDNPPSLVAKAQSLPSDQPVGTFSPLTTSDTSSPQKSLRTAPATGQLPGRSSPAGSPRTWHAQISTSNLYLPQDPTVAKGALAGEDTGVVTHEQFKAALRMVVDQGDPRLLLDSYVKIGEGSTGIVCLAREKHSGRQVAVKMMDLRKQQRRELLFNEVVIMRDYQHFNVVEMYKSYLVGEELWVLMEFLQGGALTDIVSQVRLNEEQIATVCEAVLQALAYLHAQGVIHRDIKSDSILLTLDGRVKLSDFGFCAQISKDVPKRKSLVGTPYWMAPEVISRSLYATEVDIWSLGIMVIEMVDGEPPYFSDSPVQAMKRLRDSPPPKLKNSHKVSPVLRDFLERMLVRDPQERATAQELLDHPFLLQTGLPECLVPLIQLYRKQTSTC
# STK25 (human), sequence (O00506 whole entry, looked up): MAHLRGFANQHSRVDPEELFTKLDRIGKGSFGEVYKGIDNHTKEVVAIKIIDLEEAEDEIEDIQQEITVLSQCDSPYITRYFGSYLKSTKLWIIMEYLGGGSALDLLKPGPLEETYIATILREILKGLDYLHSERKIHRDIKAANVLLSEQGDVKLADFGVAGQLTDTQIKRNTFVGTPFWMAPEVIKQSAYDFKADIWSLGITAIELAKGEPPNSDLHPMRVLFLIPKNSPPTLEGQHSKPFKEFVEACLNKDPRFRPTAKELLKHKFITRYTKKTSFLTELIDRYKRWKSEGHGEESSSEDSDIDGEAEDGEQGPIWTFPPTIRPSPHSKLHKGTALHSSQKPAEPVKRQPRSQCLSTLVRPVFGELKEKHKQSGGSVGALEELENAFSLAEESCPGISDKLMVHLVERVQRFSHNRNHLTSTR
Compound,"kinase still bound, per cent of control (MAPK3 (human)) [%]","kinase still bound, per cent of control (CSNK1E (human)) [%]","kinase still bound, per cent of control (RIOK1 (human)) [%]","kinase still bound, per cent of control (PRKACB (human)) [%]","kinase still bound, per cent of control (CDC42BPA (human)) [%]","kinase still bound, per cent of control (CDK3 (human)) [%]","kinase still bound, per cent of control (DAPK3 (human)) [%]","kinase still bound, per cent of control (TAOK3 (human)) [%]","kinase still bound, per cent of control (MELK (human)) [%]","kinase still bound, per cent of control (MAP3K10 (human)) [%]","kinase still bound, per cent of control (DYRK1B (human)) [%]","kinase still bound, per cent of control (MYLK (human)) [%]","kinase still bound, per cent of control (STK24 (human)) [%]","kinase still bound, per cent of control (PRKCE (human)) [%]","kinase still bound, per cent of control (AKT3 (human)) [%]","kinase still bound, per cent of control (SRC (human)) [%]","kinase still bound, per cent of control (MARK1 (human)) [%]","kinase still bound, per cent of control (NUAK1 (human)) [%]","kinase still bound, per cent of control (FYN (human)) [%]","kinase still bound, per cent of control (CHEK2 (human)) [%]",other results
N#Cc1c(NC(=O)c2cccc3ccccc23)sc2c1CCCC2,74,70,100,80,100,97,88,87,85,100,89,99,80,100,82,81,100,77,63,84,"kinase still bound, per cent of control (STK25 (human)): 93%; kinase still bound, per cent of control (PRKX (human)): 100%; kinase still bound, per cent of control (LATS2 (human)): 75%; kinase still bound, per cent of control (PHKG1 (human)): 100%; kinase still bound, per cent of control (DAPK2 (human)): 91%; kinase still bound, per cent of control (TNNI3K (human)): 52%; kinase still bound, per cent of control (EPHA7 (human)): 84%; kinase still bound, per cent of control (MKNK1 (human)): 100%; kinase still bound, per cent of control [1]: 100%; kinase still bound, per cent of control (PIM1 (human)): 100%; kinase still bound, per cent of control (PAK6 (human)): 88%; kinase still bound, per cent of control (ULK1 (human)): 100%; kinase still bound, per cent of control (TNK1 (human)): 74%; kinase still bound, per cent of control (ACVRL1 (human)): 100%; kinase still bound, per cent of control (GAK (human)): 67%; kinase still bound, per cent of control (MYO3B (human)): 88%; kinase still bound, per cent of control (SRPK3 (human)): 100%; kinase still bound, per cent of control [2]: 100%; kinase still bound, per cent of control (MAPKAPK5 (human)): 100%; kinase still bound, per cent of control (CaMK1 (human)): 73%"
O=C(NC1CC1)c1cccc(-c2ccc3c(NC(=O)C4CC4)n[nH]c3c2)c1,95,80,10,100,87,7.2,69,33,64,95,89,63,82,100,100,100,96,100,79,100,"kinase still bound, per cent of control (STK25 (human)): 76%; kinase still bound, per cent of control (PRKX (human)): 100%; kinase still bound, per cent of control (LATS2 (human)): 85%; kinase still bound, per cent of control (PHKG1 (human)): 76%; kinase still bound, per cent of control (DAPK2 (human)): 87%; kinase still bound, per cent of control (TNNI3K (human)): 92%; kinase still bound, per cent of control (EPHA7 (human)): 96%; kinase still bound, per cent of control (MKNK1 (human)): 69%; kinase still bound, per cent of control [1]: 40%; kinase still bound, per cent of control (PIM1 (human)): 70%; kinase still bound, per cent of control (PAK6 (human)): 61%; kinase still bound, per cent of control (ULK1 (human)): 100%; kinase still bound, per cent of control (TNK1 (human)): 100%; kinase still bound, per cent of control (ACVRL1 (human)): 100%; kinase still bound, per cent of control (GAK (human)): 49%; kinase still bound, per cent of control (MYO3B (human)): 93%; kinase still bound, per cent of control (SRPK3 (human)): 10%; kinase still bound, per cent of control [2]: 18%; kinase still bound, per cent of control (MAPKAPK5 (human)): 99%; kinase still bound, per cent of control (CaMK1 (human)): 84%"
CCN1CCN(Cc2ccc(Nc3ncc4c(n3)N(C)c3ccccc3C(=O)N4C)cc2C(F)(F)F)CC1,99,45,33,100,70,100,79,0.1,75,100,68,64,35,81,100,2,21,3,20,100,"kinase still bound, per cent of control (STK25 (human)): 47%; kinase still bound, per cent of control (PRKX (human)): 100%; kinase still bound, per cent of control (LATS2 (human)): 91%; kinase still bound, per cent of control (PHKG1 (human)): 100%; kinase still bound, per cent of control (DAPK2 (human)): 70%; kinase still bound, per cent of control (TNNI3K (human)): 78%; kinase still bound, per cent of control (EPHA7 (human)): 100%; kinase still bound, per cent of control (MKNK1 (human)): 100%; kinase still bound, per cent of control [1]: 2%; kinase still bound, per cent of control (PIM1 (human)): 86%; kinase still bound, per cent of control (PAK6 (human)): 79%; kinase still bound, per cent of control (ULK1 (human)): 0%; kinase still bound, per cent of control (TNK1 (human)): 0.3%; kinase still bound, per cent of control (ACVRL1 (human)): 100%; kinase still bound, per cent of control (GAK (human)): 12%; kinase still bound, per cent of control (MYO3B (human)): 100%; kinase still bound, per cent of control (SRPK3 (human)): 57%; kinase still bound, per cent of control [2]: 0%; kinase still bound, per cent of control (MAPKAPK5 (human)): 100%; kinase still bound, per cent of control (CaMK1 (human)): 78%"
